Measured values reported in ChEMBL document CHEMBL1201862, “PubChem BioAssay data set” (2004).
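Where inhibition never reached the appropriate level, the endpoint shown equals the highest concentration tested. Otherwise, values were interpolated linearly from a five-concentration, 48-hour dose response in 96-well plates. Abbreviation: GI50, concentration required for 50% inhibition of growth.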 Activity calls are given as the source filed them. No stated cut-off is given here; in the data, active = GI50 up to about 1.1 µM and inactive = higher.

Legend:
Assay in all cases: DTP human tumour cell line panel, 48 h
A498 = tested on: A498
CCRF-CEM = tested on: CCRF-CEM
EKVX = tested on: EKVX
HCC 2998 = tested on: HCC 2998
HOP-62 = tested on: HOP-62
KM12 = tested on: KM12
MOLT-4 = tested on: MOLT-4
NCI-H522 = tested on: NCI-H522
RXF 393 = tested on: RXF 393
SF-268 = tested on: SF-268
SF-295 = tested on: SF-295
SF-539 = tested on: SF-539
SK-MEL-28 = tested on: SK-MEL-28
SK-OV-3 = tested on: SK-OV-3
SNB-19 = tested on: SNB-19
SNB-75 = tested on: SNB-75
SW-620 = tested on: SW-620
U-251 = tested on: U-251
UACC-257 = tested on: UACC-257
UO-31 = tested on: UO-31

Measured: GI50

CC(C)CNC1=NCC(C)S1 (stereo not given)
inactive: A498 > 100 µM | CCRF-CEM > 100 µM | EKVX > 100 µM | HCC 2998 > 100 µM | HOP-62 > 100 µM | KM12 > 100 µM | MOLT-4 > 100 µM | NCI-H522 > 100 µM | RXF 393 > 100 µM | SF-268 74.8 µM | SF-295 > 100 µM | SF-539 > 100 µM | SK-MEL-28 > 100 µM | SK-OV-3 > 100 µM | SNB-19 > 100 µM | SNB-75 > 100 µM | SW-620 > 100 µM | U-251 > 100 µM | UACC-257 > 100 µM | UO-31 79.3 µM

O=C(O)CN1CCN(CC(=O)O)CCN(CC(=O)O)CC1
inactive: A498 > 33.6 µM | CCRF-CEM 3.91 µM | EKVX 59.2 µM | HCC 2998 3.15 µM | HOP-62 > 100 µM | KM12 5.81 µM | MOLT-4 4.71 µM | NCI-H522 5.22 µM | RXF 393 5.64 µM | SF-268 23.6 µM | SF-295 37.5 µM | SF-539 > 25.3 µM | SK-MEL-28 > 72.1 µM | SK-OV-3 8.38 µM | SNB-19 > 100 µM | SNB-75 12.6 µM | SW-620 8.47 µM | U-251 16.4 µM | UACC-257 58.7 µM | UO-31 83.8 µM
